Experimental data published in US8173768B2, “Peptides having antimicrobial and neurotrophic activity and uses thereof” (priority 2009, dated 2012).
Bridge positions count the residues as written; N and C are the ends. Square brackets hold non-standard residues; d marks the D form. Ends that are not written are not given here. Peptide text beside a SMILES is read from it. Phe(ol) = N[C@H](CO)Cc1ccccc1; Aib = CC(C)(N)C(=O)O

Experiments:
[1] = system: Gram negative A. hydrophila; assay: liquid growth inhibition assay; assay type: cell-based, Aeromonas hydrophila; conditions: at the same concentration as against M. nishinomiyaensis
Source text: Microorganisms: The Gram-positive and Gram-negative bacteria Micrococcus nishinomiyaensis and Aeromonas hydrophila respectively were isolated from the natural environment of Hirudo medicinalis. These bacterial colonies, which are present in the water, were selected from agar plate under aerobic conditions at room temperature using a random isolation grid. The Gram-positive bacteria Bacillus megaterium was used for the SYTOX Green assay.
(§1) Antimicrobial assays: After each purification step, antibacterial activity was monitored by a solid plate assay as described in previous studies (14). The minimal inhibitory concentration (MIC) and the minimal bactericidal concentration (MBC) were determined according to the method of Hancock (http://cmdr.ubc.ca/bobh/showmethod.php?methodid=79). […]
No activity was found towards the Gram negative A. hydrophila at the same concentration. […] Since neuromacin contains four histidine residues in its primary structure (in contrast to none in theromacin), we evaluated the effect of a more acidic pH, at which the histidine residues are protonated, on the membrane-permeabilizing activity (FIG. 5B). […] Similar activity against the Gram-negative representative E. coli was not detected up to a neuromacin concentration of 25 μM (data not shown). […]

[2] = system: B. megaterium; assay: SYTOX Green membrane permeabilization assay; assay type: cell-based, Bacillus megaterium
Description: FIG. 5 illustrates membrane permeabilization of B. megaterium induced by neuromacin. Membrane damage of the bacteria was measured fluorometrically using the dye SYTOX Green. […] Antibacterial activity of the peptides is expressed as a percentage of permeabilized bacteria. (A) Time kinetics of membrane permeabilization induced by neuromacin measured for different doses at various incubation periods. (B) Membrane permeabilizing effects of neuromacin (rhombs) in comparison with cecropin P1 (triangles) and magainin II (circles) after 30 min of incubation of B. megaterium with each peptide at various concentrations, at pH 5.2 (open symbols) and at pH 7.4 (closed symbols). […]
as §1
No activity was found towards the Gram negative A. hydrophila at the same concentration. […] Since neuromacin contains four histidine residues in its primary structure (in contrast to none in theromacin), we evaluated the effect of a more acidic pH, at which the histidine residues are protonated, on the membrane-permeabilizing activity (FIG. 5B). […]

[3] = system: axotomized nerve cords; assay: regeneration of axotomized leech nerve cord ex vivo (time-lapse); parameters: species or system Hirudo medicinalis; conditions: native neuromacin 4 μM, aseptic conditions; 4 days without neuromacin
Description: Collection and treatment of the nerve cords: Adult leeches, Hirudo medicinalis species, weighting 2-3 g were purchased from a commercial supplier (Ricarampex, France). Animals were kept in artificial pond water and starved up to 3 weeks before use. Leeches were anaesthetised in 10% ethanol-spring water for 20 min and the nerve cords were removed according to the protocol of Nicholls et al (J Neurophysiol, 1968, 31:740-756.). After three successive baths in antibiotics, cords were placed in Leibowitz-15 (L-15, Gibco) culture medium supplemented with 2% fetal calf serum, 0.6% glucose and gentamicin ([…]) (Nature, 1979, 281:67-69). Connectives between ganglia were injured in a standard manner using a pair of sterilized fine iridectomy scissors. Axotomized nerve cords were separately incubated in L-15 medium containing different microbial components: 3×10^7 CFU/ml of heat killed or live bacteria, 10 μg/ml of polyI:C (Invivogen), 100 μg/ml of zymosan (Invivogen,) and 100 μg/ml of mannane (Invivogen) for different time (t=0 to t=8 days) at room temperature. Incubations without microbial components or bacteria were performed in the same conditions as controls. All the steps were performed under sterile conditions. […]

[4] = pore-forming activity (dissipation of membrane potential in liposomes); assay type: biochemical
Description: Antimicrobial assays: After each purification step, antibacterial activity was monitored by a solid plate assay as described in previous studies (14). The minimal inhibitory concentration (MIC) and the minimal bactericidal concentration (MBC) were determined according to the method of Hancock (http://cmdr.ubc.ca/bobh/showmethod.php?methodid=79). Permeabilization of bacterial membranes and pore-forming activity were assayed as previously described (Herbst, R et al. (2002), J Biol Chem 277:22353-22360; Leippe, M. et al. 1991. Proc Natl Acad Sci USA 88:7659-7663).
No activity was found towards the Gram negative A. hydrophila at the same concentration. […] Since neuromacin contains four histidine residues in its primary structure (in contrast to none in theromacin), we evaluated the effect of a more acidic pH, at which the histidine residues are protonated, on the membrane-permeabilizing activity (FIG. 5B). […] Similar activity against the Gram-negative representative E. coli was not detected up to a neuromacin concentration of 25 μM (data not shown). We also measured the pore-forming activity of neuromacin to further characterize its mode of action by using a minimalistic membrane system. More precisely, we monitored the dissipation of a membrane potential induced in liposomes composed of azolectin, a crude phospholipid mixture from soy bean.

H-DCYEDWSRCTPGTSFLTGILWKDCHSRCKELGHRGGRCVDSPSKHCPGVLKNNKQCHCY (disulfide 2-46, 9-38, 24-56, 28-58) [neuromacin]
activity towards A. hydrophila [1]: No activity | activity relative to cecropin P1 and magainin II ([2]; B. megaterium, within the measurement period): over one order of magnitude lower | efficacy to induce membrane lesions, effect of pH ([2]; pH 5.2 versus pH 7.4, FIG. 5B): weaker at pH 5.2 than at pH 7.4 | start of reconnection post-axotomy [3]: less than 24 hours | pore-forming activity ([4]; final concentrations up to 2 μM (data not shown)): not detected

CC(=O)NC(C)(C)C(=O)N1CCC[C@H]1C(=O)NC(C)(C)C(=O)N[C@@H](C)C(=O)NC(C)(C)C(=O)N[C@@H](C)C(=O)N[C@@H](CCC(N)=O)C(=O)NC(C)(C)C(=O)N[C@H](C(=O)NC(C)(C)C(=O)NCC(=O)N[C@@H](CC(C)C)C(=O)NC(C)(C)C(=O)N1CCC[C@H]1C(=O)N[C@H](C(=O)NC(C)(C)C(=O)NC(C)(C)C(=O)N[C@@H](CCC(=O)O)C(=O)N[C@@H](CCC(N)=O)C(=O)N[C@H](CO)Cc1ccccc1)C(C)C)C(C)C [alamethicin, reference compound] (Ac-[Aib]P[Aib]A[Aib]AQ[Aib]V[Aib]GL[Aib]PV[Aib][Aib]EQ[Phe(ol)])
pore-forming activity ([4]; positive control at 50 nM (data not shown)): very strong signal
